The results in this text go back to patent US9757379B2, “Inhibition of HIF-2α heterodimerization with HIF1β (ARNT)” (The Board of Regents of the University of Texas System, priority 2012, dated 2017).

The target of one assay is HIF-2α PAS-B (Homo sapiens, UniProt Q99814). The assay is described as follows: Isothermal titration calorimetry (ITC) on HIF-2α PAS-B. (ITC needs no label: the signal is the heat of the interaction.)
The target in assay [1] is HIF-2α PAS-B*/ARNT PAS-B* heterodimer (Homo sapiens, UniProt Q99814, R247E). The assay is described as follows: AlphaScreen, HIF-2α PAS-B*/ARNT PAS-B* heterodimerization.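 Further: GST-tagged HIF-2α PAS-B* and FLAG-tagged ARNT PAS-B* with glutathione donor and anti-FLAG acceptor beads, luminescence after 680 nm excitation, loss of signal indicating disrupted heterodimer.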 A general note: Bead proximity is the source of the signal in Alpha formats.
Description: (FIG. 8a) As shown in the cartoon schematic, interactions between GST-tagged HIF-2α (green) and FLAG-tagged ARNT (blue) PAS-B* domains recruit both donor beads (D), coated with glutathione, and acceptor beads (A), coated with anti-FLAG antibodies, to one another. Upon illumination with red (680 nm) light, donor beads will generate short-lived singlet oxygen (^1O2). Nearby (<200 nm) acceptor beads can react with ^1O2 to emit light at shorter wavelengths (top). Compounds that disrupt the complex correspondingly eliminate this signal (bottom). Compounds that non-specifically interfere with the AlphaScreen assay can be identified with a counterscreen in which the ARNT PAS-B* domain was simultaneously tagged with both the GST and FLAG tags. (FIG. 8b) The AlphaScreen signal (relative units; RU) reflecting protein-protein interactions between 25 (open triangles), 50 (open circles) or 100 (closed circles) nM HIF-2α PAS-B* increases with increasing concentrations of ARNT PAS-B*. At the highest ARNT PAS-B* concentrations, a decrease in signal reflects the hook effect. At these concentrations, protein binding to the acceptor beads has become saturated and free ARNT PAS-B* competes with the coated acceptor beads for the donor beads bound to HIF-2α PAS-B*. […] Assays were performed in triplicate and the error bars represent±SD.
Inhibition of heterodimerization of HIF-2α to HIF1β (ARNT) may be determined in an Amplified Luminescent Proximity Homogeneous Assay (AlphaScreen).
The AlphaScreen assay can be done according to the following procedures: • 1. Prepare cold binding buffer solution: 20 mM Tris-Cl (pH=7.5), 100 mM NaCl, 1 mM DTT, 0.02% Tween-20 (final concentration) and place on ice to keep temperature approximately 4° C. • 2. Prepare Protein Mix: To a 50 mL conical tube add 23 mL of cold buffer and 0.04 mL of both GST-HIF2α PASB* (100 μM) and ARNT-PASB*-Flag (100 μM). • 3. Distribute to 96 well plate: Add 60 μL of protein mix to each wells. • 4. Adding Compound: Dissolve compounds in DMSO to obtain a final concentration of 10 mM. Then create the appropriate dilutions for your particular compound in glass vials. Once all the dilutions are ready place 1 μL of compound in each well. • 5. Prepare Bead mix: In the dark room using green light only create a tube with 3.84 mL of cold buffer and 3 μL of GST Donor beads and Flag acceptor beads. • 6. Distribute Bead mix: Invert the tube a couple times before distributing 40 μL of mix to each well. • 7. Incubation: After adding beads wrap the plate in tin foil twice and remove the covered plate from dark room. Incubate the plate at room temperature while rocking gently for 4 hours. • 8. Read: After 4 hours place the uncovered plate in the plate reader. Make sure the room is relatively tree of white light when placing the plate in the machine. It is ok to have the green light on if needed. • 9. […] Flag acceptor beads should be aliquoted into small opaque tubes (20-50 μl per tube) upon arrival from the manufacturer. Place both sets of beads in 4° C. storage when not in use. • 11. Avoid expose beads to white light. • 12. Pipette beads up and down several times before adding to a tube of cold buffer solution. • 13. Amount of Beads used for Bead mix may vary from batch to batch.

The structures appear in SMILES notation. Like-named read-outs stand apart in the source and are kept apart here. Some results are limits rather than exact numbers.
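Wherever Kd is given: Wild-type protein (200 µM) titrated into 5-10 µM compound, heats of dilution from a compound-free titration subtracted, isotherms fit to a single-site model.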

Chain of HIF-2α PAS-B*/ARNT PAS-B* heterodimer (Q99814 240-350 R247E, one chain of several): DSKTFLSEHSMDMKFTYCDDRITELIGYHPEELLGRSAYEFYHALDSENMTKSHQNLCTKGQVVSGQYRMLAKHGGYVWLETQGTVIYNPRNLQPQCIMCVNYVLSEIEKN
Chain of HIF-2α PAS-B (Q99814 240-350): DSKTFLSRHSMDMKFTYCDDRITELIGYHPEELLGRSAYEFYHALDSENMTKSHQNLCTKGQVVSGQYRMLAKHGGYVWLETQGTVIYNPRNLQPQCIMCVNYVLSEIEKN

On HIF-2α PAS-B, `Fc1c(Cl)cccc1[C@@H]1C[C@H](c2cccc(Br)c2)Nc2nnnn21` (racemic) [Compound 59, (+/−)-(cis)-5-(3-bromophenyl)-7-(3-chloro-2-fluorophenyl)-4,5,6,7-tetrahydrotetrazolo[1,5-a]pyrimidine] showed a Kd of 42 nM. For the same compound, the IC50 in assay [1] is 200 nM. Consider `Fc1c(Br)ccc(Br)c1[C@H]1C[C@@H](c2cccc(Br)c2)Nc2nnnn21` [Compound 63, (5S,7R)-5-(3-bromophenyl)-7-(3,6-dibromo-2-fluorophenyl)-4,5,6,7-tetrahydrotetrazolo[1,5-a]pyrimidine], for which, at HIF-2α PAS-B, binding was put at a Kd of 31 nM. In assay [1], this compound had an IC50 of less than 10 nM. On the same counts, the results for `Clc1cccc([C@H]2C[C@@H](c3cccc(Br)c3)Nc3nnnn32)c1` [Compound 57] are 133 nM and 150 nM. In the case of `COc1cccc(Nc2ccc3nonc3c2[N+](=O)[O-])c1` [Compound 23], the IC50 in assay [1] is greater than 10000 nM. The compound `O=[N+]([O-])c1c(Nc2ccc(Cl)c(C(F)(F)F)c2)ccc2nonc12` [Compound 9, N-(4-chloro-3-(trifluoromethyl)phenyl)-4-nitrobenzo[c][1,2,5]oxadiazol-5-amine] yielded a Kd at HIF-2α PAS-B of 260 nM. Further, inhibition in assay [1] was half-maximal at 90 nM (IC50). At HIF-2α PAS-B, `Fc1cc(Cl)cc(Nc2ccc3nonc3c2)c1` [Compound 38] showed an equilibrium dissociation constant (Kd) of roughly 3000 nM. Regarding `Clc1ccccc1[C@H]1C[C@@H](c2cccc(Br)c2)Nc2nnnn21` [Compound 52, (5S,7R)-5-(3-bromophenyl)-7-(2-chlorophenyl)-4,5,6,7-tetrahydrotetrazolo[1,5-a]pyrimidine], the Kd on HIF-2α PAS-B turned out to be 337 nM. In assay [1], this compound returned an IC50 of 300 nM. On the same counts, the results for `Brc1cccc([C@@H]2C[C@H](c3cccc(Br)c3)n3nnnc3N2)c1` [Compound 58, (5S,7R)-5,7-bis(3-bromophenyl)-4,5,6,7-tetrahydrotetrazolo[1,5-a]pyrimidine] are 89 nM and 100 nM. In turn, `O=[N+]([O-])c1c(NCc2cc(F)ccc2F)ccc2nonc12` [Compound 3, N-(2,5-difluorobenzyl)-4-nitrobenzo[c][1,2,5]oxadiazol-5-amine] had a Kd on HIF-2α PAS-B greater than 10000 nM. The compound also showed an IC50 in assay [1] greater than 10000 nM.

At HIF-2α PAS-B, `Fc1cc(Br)cc([C@@H]2C[C@H](c3ccccc3)n3nnnc3N2)c1` [Compound 49, (5S,7R)-5-(3-bromo-5-fluorophenyl)-7-phenyl-4,5,6,7-tetrahydrotetrazolo[1,5-a]pyrimidine] came in with a Kd of 268 nM. In assay [1], this compound registered an IC50 of 350 nM. Take `CNS(=O)(=O)c1c(Nc2cc(F)cc(Cl)c2)ccc2nonc12` [Compound 43]: the Kd at HIF-2α PAS-B (read-out: ITC Kd) was determined as 5000 nM. As to `Fc1ccccc1[C@@H]1C[C@H](c2cccc(Br)c2)Nc2nnnn21` (racemic) [Compound 50, (+/−)-(cis)-5-(3-bromophenyl)-7-(2-fluorophenyl)-4,5,6,7-tetrahydrotetrazolo[1,5-a]pyrimidine], binding on HIF-2α PAS-B was put at a Kd of 760 nM. For the same compound, the IC50 in assay [1] worked out at 700 nM. Turning to `Cc1ccc(CNc2ccc3nonc3c2[N+](=O)[O-])cc1` [Compound 18], the IC50 in assay [1] is greater than 10000 nM. Take `Fc1ccc(Br)c(F)c1[C@H]1C[C@@H](c2cccc(Br)c2)Nc2nnnn21` [Compound 62, (5S,7R)-7-(3-bromo-2,6-difluorophenyl)-5-(3-bromophenyl)-4,5,6,7-tetrahydrotetrazolo[1,5-a]pyrimidine]: binding at HIF-2α PAS-B was put at a Kd of 44 nM. The compound also showed an IC50 in assay [1] of less than 100 nM. For the compound `O=[N+]([O-])c1c(NCc2ccc(F)cc2Cl)ccc2nonc12` [Compound 2, N-(2-chloro-4-fluorobenzyl)-4-nitrobenzo[c][1,2,5]oxadiazol-5-amine], the Kd on HIF-2α PAS-B (read-out: ITC Kd) turned out to be 500 nM. Moreover, inhibition in assay [1] was half-maximal at 330 nM (IC50). As to `O=[N+]([O-])c1c(Nc2cccc(Cl)c2)ccc2nonc12` [Compound 5, N-(3-chlorophenyl)-4-nitrobenzo[c][1,2,5]oxadiazol-5-amine], at HIF-2α PAS-B (read-out: ITC Kd), the Kd stood at 160 nM. The compound further gave an IC50 in assay [1] of 180 nM. The compound `O=[N+]([O-])c1c(NCc2ccc(F)cc2C(F)(F)F)ccc2nonc12` [Compound 4, N-(4-fluoro-2-(trifluoromethyl)benzyl)-4-nitrobenzo[c][1,2,5]oxadiazol-5-amine] showed a Kd at HIF-2α PAS-B of 520 nM. In assay [1], this compound came in with an IC50 greater than 30000 nM. `O=[N+]([O-])c1c(Nc2cccc(F)c2)ccc2nonc12` [Compound 28] registered a Kd at HIF-2α PAS-B of 2100 nM. On HIF-2α PAS-B, `Clc1cccc([C@@H]2C[C@H](c3cccc(Br)c3)Nc3nnnn32)c1` (racemic) [Compound 56, (+/−)-(cis)-5-(3-bromophenyl)-7-(3-chlorophenyl)-4,5,6,7-tetrahydrotetrazolo[1,5-a]pyrimidine] returned a Kd of 106 nM. Moreover, the IC50 in assay [1] was 200 nM.

In turn, `CC(C)C[C@@H]1C[C@H](c2cccc(Br)c2)Nc2nnnn21` (racemic) [Compound 64, (+/−)-(cis)-5-(3-bromophenyl)-7-isobutyl-4,5,6,7-tetrahydrotetrazolo[1,5-a]pyrimidine] returned a Kd on HIF-2α PAS-B of 930 nM. As for `Brc1cccc([C@H]2C[C@@H](c3ccccc3Br)n3nnnc3N2)c1` (racemic) [Compound 54, (+/−)-(cis)-7-(2-bromophenyl)-5-(3-bromophenyl)-4,5,6,7-tetrahydrotetrazolo[1,5-a]pyrimidine], at HIF-2α PAS-B, the Kd amounted to 565 nM. The midpoint of inhibition in assay [1], the IC50, lay at 200 nM. For `O=[N+]([O-])c1c(Nc2cccc(Cl)c2F)ccc2nonc12` [Compound 8, N-(3-chloro-2-fluorophenyl)-4-nitrobenzo[c][1,2,5]oxadiazol-5-amine], the Kd on HIF-2α PAS-B (read-out: ITC Kd) is 1100 nM. The compound also gave an IC50 in assay [1] of 760 nM. Consider `O=[N+]([O-])c1c(NCc2ccc(Cl)cc2)ccc2nonc12` [Compound 19], for which, in assay [1], the IC50 is greater than 5000 nM. With `O=[N+]([O-])c1c(Nc2ccc(Cl)c(Cl)c2)ccc2nonc12` [Compound 12, N-(3,4-dichlorophenyl)-4-nitrobenzo[c][1,2,5]oxadiazol-5-amine], the Kd at HIF-2α PAS-B (read-out: ITC Kd) amounted to 170 nM. Further, the IC50 in assay [1] was 120 nM.

On to `O=[N+]([O-])c1c(Nc2cc(F)cc(C(F)(F)F)c2)ccc2nonc12` [Compound 10, N-(3-fluoro-5-(trifluoromethyl)phenyl)-4-nitrobenzo[c][1,2,5]oxadiazol-5-amine], for which the Kd on HIF-2α PAS-B (read-out: ITC Kd) is 370 nM. The compound also registered an IC50 in assay [1] of 430 nM. In turn, `O=[N+]([O-])c1ccccc1Nc1cc(F)cc(Cl)c1` (racemic) [Compound 33] had a Kd at HIF-2α PAS-B of 4300 nM.

On to `O=[N+]([O-])c1c(NCc2cc(F)ccc2C(F)(F)F)ccc2nonc12` [Compound 22], for which the IC50 in assay [1] was greater than 30000 nM. Still for that read-out and setting: the value for `O=[N+]([O-])c1c(NCc2ccccc2)ccc2nonc12` [Compound 17] was greater than 5000 nM; that for `O=[N+]([O-])c1c(Nc2cc(F)cc(Cl)c2)ccc2nn[nH]c12` [Compound 34] was greater than 10000 nM.

Turning to `O=[N+]([O-])c1c(NCc2cc(F)cc(Cl)c2)ccc2nonc12` [Compound 21], the Kd at HIF-2α PAS-B (read-out: ITC Kd) came out at 2000 nM. As for `O=[N+]([O-])c1cccc(Nc2ccc3nonc3c2[N+](=O)[O-])c1` [Compound 27], at HIF-2α PAS-B, the Kd is 4300 nM. On to `O=[N+]([O-])c1c(Nc2cc(F)cc(Cl)c2)ccc2[nH]cnc12` [Compound 35], for which the IC50 in assay [1] was greater than 5000 nM. As for `CN(C)S(=O)(=O)c1c(Nc2cc(F)cc(Cl)c2)ccc2nonc12` [Compound 44], at HIF-2α PAS-B (read-out: ITC Kd), the Kd turned out to be 5000 nM.

Usually Kd stands for the concentration at which binding is half-saturated. Usually IC50 stands for the point on the concentration scale where inhibition reaches its midpoint.
